Like-named read-outs stand apart in the source and are kept apart here.
Key:
Experiment in all cases: MT-4 cell-based antiviral assay, SDM mutant
HIV-1 mutant 106A = details: Human immunodeficiency virus 1, MT4
Description: (§1) Compound E-TMC278 was tested in a cell-based assay, using natural host cells of HIV. MT-4 cells (a cell line of human T cells) were infected with HIV-1 (wild type or mutants) and exposed to different concentrations of antiviral compound in the presence of 10% fetal calf serum. Cytotoxicity was determined in parallel with the antiviral activity so that the selectivity of the antiviral effect could be assessed. Active compounds have to penetrate the cell membrane in order to interfere with replication steps inside the cell.
(§2) After four days of incubation at 37° C., the viability of the HIV and mock-infected cells was assessed by an automated tetrazolium-based calorimetric assay. This method enabled the calculation of both the 50% inhibitory concentration for inhibition of viral cytopathicity (IC50), the IC90, and the 50% cytotoxic concentration (CC50). The ratio CC50/IC50, also called the selectivity index, is an indication of the specificity of the antiviral effect. Tested HIV strains included: Wild type (wt) HIV-1; a panel of single and double mutants, obtained by site-directed mutagenesis (SDM), and a panel of clinical isolates, selected for resistance against NNRTIs.
(§3) A limited panel of HIV-1 mutants was constructed using site-directed mutagenesis (SDM) and homologous recombination techniques. […] Nevirapine (NVP) and efavirenz (EFV) were included as controls.

HIV-1 mutant 108I = details: Human immunodeficiency virus 1, MT4
Description: as §1, §2, §3

HIV-1 mutant 179D = details: Human immunodeficiency virus 1, MT4
Description: as §1, §2, §3

HIV-1 mutant 181C = tested on: HIV-1 mutant 181C
Description: as §1, §2, §3

HIV-1 mutant 188C = details: Human immunodeficiency virus 1, MT4
Description: as §1, §2, §3

HIV-1 mutant 190S = details: Human immunodeficiency virus 1, MT4
Description: as §1, §2, §3

HIV-1 mutant 227C = tested on: HIV-1 mutant 227C
Description: as §1, §2, §3

[1] = Human immunodeficiency virus 1, MT4
[2] = Human immunodeficiency virus 1, MT4, read-out: IC50 value

Cc1cc(/C=C/C#N)cc(C)c1Nc1ccnc(Nc2ccc(C#N)cc2)n1 [E-TMC278, (E)-4-[[4-[[4-(2-cyanoethenyl)-2,6-dimethylphenyl]-amino]-2-pyrimidinyl]-amino]-benzonitrile]
IC50 (HIV-1 mutant 106A): 0.2 nM
IC50 (HIV-1 mutant 108I): 0.3 nM
IC50 (HIV-1 mutant 179D): 0.6 nM
IC50 (HIV-1 mutant 181C; [1]): 1.3 nM
IC50 (HIV-1 mutant 181C; [2]): 1.3 nM
IC50 (HIV-1 mutant 188C): 0.1 nM
IC50 (HIV-1 mutant 190S): 0.1 nM
IC50 (HIV-1 mutant 227C; [1]): 2 nM
IC50 (HIV-1 mutant 227C; [2]): 2 nM

Source: patent US8841310B2, “Combinations of a pyrimidine containing NNRTI with RT inhibitors” (Janssen R & D Ireland, priority 2003, dated 2014)
